Patent US20150209426A1, “TREATMENT OF CANCER” (Boehringer Ingelheim International GmbH, priority 2014, published 2015)

Columns and labels:
[1] = tested on: AKT and S6 phosphorylation in MCF7aro cells; assay: Western blot assessment of AKT and S6 phosphorylation status in MCF7aro cell lysates; type: cell-based, human; details: 24 hours, 100 nM IGF Ab 60833, 0.32 nM everolimus, versus vehicle (DMSO) control
Procedure: 1.8×10^6 MCF7aro cells were plated in 10 cm dishes in starvation medium (MEM alpha without phenol red, supplemented with 10% charcoal stripped FBS, 2 mM GlutaMAX and […]). After overnight incubation, medium was changed to assay medium (MEM alpha without phenol red, supplemented with 10% charcoal stripped FBS, 2 mM GlutaMAX, 1 mM sodium pyruvate and 1 nM androstenedione) and the cells were treated with 100 nM of IGF Ab 60833 or 0.32 nM of everolimus or a combination of antibody and mTORC1 inhibitor. As a control, cells were treated with vehicle (DMSO) only. At 24 h post treatment, the cells were lysed on ice with MSD Tris Lysis Buffer containing 20 mM Tris pH 7.5, 150 mM NaCl, 1 mM EDTA, 1 mM EGTA, 1% Triton X-100, completed with protease and phosphatase inhibitor cocktails. Prior to use, freshly prepared 2 mM PMSF was added to the buffer.
(§1) Total protein was isolated and protein concentration was quantified by Bradford protein assay according to the manufacturer's instructions. […]
The effect of IGF Ab 60833 and everolimus, as single agents and in combination, on the phosphorylation of AKT at serine 473 (pAKT S473) and threonine 308 (pAKT T308), and of S6 (pS6) at serine 235/236 was monitored by Western blot analysis of MCF7aro cell lysates prepared 24 hours post treatment.

[2] = tested on: cleaved PARP in MCF7aro cells; assay: Cleaved PARP (apoptosis) in MCF7aro cell lysates by Western blot and MSD Apoptosis Panel; type: cell-based, human; details: 72 h, 1 μM of each agent, versus vehicle-treated control
Procedure: 1.5×10^6 MCF7aro cells were plated in 10 cm dishes in starvation medium (MEM alpha without phenol red, supplemented with 10% charcoal stripped FBS, 2 mM GlutaMAX and 1 mM sodium pyruvate). After overnight incubation, medium was changed to assay medium (MEM alpha without phenol red, supplemented with 10% charcoal stripped FBS, 2 mM GlutaMAX, 1 mM sodium pyruvate and 1 nM androstenedione) and the cells were treated with vehicle (DMSO), or 1 μM of IGF Ab 60833, or 1 μM exemestane, or 1 μM everolimus, or a combination of exemestane and everolimus, or a combination of all three inhibitors. At 72 h post treatment, the cells were lysed on ice with MSD Tris Lysis Buffer containing 20 mM Tris pH 7.5, 150 mM NaCl, 1 mM EDTA, 1 mM EGTA, 1% Triton X-100, completed with protease and phosphatase inhibitor cocktails. Prior to use, freshly prepared 2 mM PMSF was added to the buffer.
as §1
Cells lysates were prepared according to the Meso Scale Discovery cell lysis protocol. 20 μg of clarified lysate was analyzed in duplicates with MSD Apoptosis Panel Whole Cell Lysate Kit, measuring cleaved PARP signals, according to the manufacturer's instructions. Plates were read on the SECTOR Imager 6000 plate reader.

MCF7aro cells = assay: Cell proliferation assay of adherently growing MCF7aro breast cancer cells (AlamarBlue cell viability); type: cell-based, human; details: 6 days of incubation, mean of three independent experiments, everolimus up to 50 nM, exemestane up to 200 nM, triple combination with fixed 10 nM IGF Ab 60833
Procedure: Three independent experiments were conducted to determine the anti-proliferative effect of IGF Ab 60833 in combination with everolimus and exemestane in MCF7aro breast cancer cells. Cell proliferation and viability following 6 days of incubation with test compounds was determined using an assay that monitors the reducing environment of the living cells in each assay well.
For cell proliferation assays and Western Blot analysis the cells were steroid-deprived for 72 h by cultivation in starvation medium (MEM alpha without phenol red, supplemented with 10% charcoal stripped FBS, 2 mM GlutaMAX and 1 mM sodium pyruvate). […]
The final concentration of the solvent DMSO in the test wells was 0.1%. Everolimus and exemestane were tested at 5 concentrations, each measured in duplicate wells, as single agents or in combination.
After 2 days of incubation with test compounds in a humidified incubator at 37° C. and 5% CO2, medium was changed to fresh assay medium and compounds were added again. […] Total fluorescence intensity of each well was then measured in a Wallac VICTOR Multilabel Counter using an excitation wavelength of 544 nm and measuring emission at 590 nm.
At the time of test compound addition, “time zero” (t=0) untreated cell plates were stained with AlamarBlue® Cell Viability Reagent. […] After incubation for 6 hours at 37° C. and 5% CO2, total fluorescence intensity was measured. […]

[3] = tested on: advanced hormone receptor-positive, HER2-negative breast cancer; details: cited from earlier work
[4] = tested on: hormone refractory, hormone receptor-positive, HER2-negative metastatic breast cancer; details: hormone refractory HR+, HER2-negative metastatic breast cancer patients; cited from earlier work

| SMILES | pAKT S473 and T308 levels by Western blot [1] | pS6 (S235/236) signal by Western blot [1] | levels of cleaved PARP (marker for apoptosis) [2] | maximal mean CGI (cell growth inhibition) (MCF7aro cells) [%] | median progression-free survival ([3]; by local investigator assessment) [months] | overall response rate ([3]; in vivo) [%] | time to progression (PFS) [4] [months] |
| --- | --- | --- | --- | --- | --- | --- | --- |
| CO[C@H]1C[C@@H]2CC[C@@H](C)[C@@](O)(O2)C(=O)C(=O)N2CCCC[C@H]2C(=O)O[C@H]([C@H](C)C[C@@H]2CC[C@@H](OCCO)[C@H](OC)C2)CC(=O)[C@H](C)/C=C(\C)[C@@H](O)[C@@H](OC)C(=O)[C@H](C)C[C@H](C)/C=C/C=C/C=C/1C [everolimus] | increased compared to the vehicle (DMSO)-treated control | reduced pS6 signal | comparable to or only marginally higher than the level in the vehicle-treated control | 47 |  |  |  |
| C=C1C[C@@H]2[C@H](CC[C@]3(C)C(=O)CC[C@@H]23)[C@@]2(C)C=CC(=O)C=C12 [exemestane, 6-Methylideneandrosta-1,4-diene-3,17-dione] |  |  | comparable to or only marginally higher than the level in the vehicle-treated control | 60 | 3.2 | 1.7 |  |
| CC/C(=C(\c1ccccc1)c1ccc(OCCN(C)C)cc1)c1ccccc1 [tamoxifen] |  |  |  |  |  |  | 4.5 |
